Measurements from patent publication EP0547191B1, “PARTICULATE VECTOR HAVING SELECTIVE TROPISM, METHOD OF PREPARATION AND PHARMACEUTICAL COMPOSITION” (BIOVECTOR THERAPEUTICS SA, priority 1991, dated 1992).

Test system: fibroblastes humains normaux
Experiment: Flow cytofluorimetry: cellular incorporation of doxorubicin measured by emitted fluorescence
Type: cell-based
Settings: fibroblasts after 48h in lipoprotein-depleted medium
Description: Après 48h de culture en milieu délipoprotéiné, les fibroblastes humains normaux sont incubés avec de la doxorubicine sous forme libre ou encapsulée dans des BVSM ou des BVSM-apoB. Après incubation, de 0, à 2h, ils sont lavés, mis en contact avec de la trypsine 0,05% pendant 1min à37°C, repris en suspension dans du milieu de culture et fixés par du paraformaldéhyde. Les suspensions cellulaires obtenues sont analysées à l'aide d'un cytofluorimètre de flux (Becton-Dickinson Fac-scan) et l'incorporation cellulaire de la doxorubicine est mesurée par l'intensité de fluorescence émise. Les témoins fibroblastes avec BVSM et BVSM-apoB sans doxorubicine ne présentent aucune fluoresence.
Les résultats obtenus sont présentés dans le tableau suivant : […]

## COc1cccc2c1C(=O)c1c(O)c3c(c(O)c1C2=O)C[C@@](O)(C(=O)CO)C[C@@H]3O[C@H]1C[C@H](N)[C@H](O)[C@H](C)O1 [Doxorubicine libre, doxorubicine]
Temps d'incubation 0 min
  Intensité de fluorescence émise: 5
Temps d'incubation 10 min
  Intensité de fluorescence émise: 22
Temps d'incubation 30 min
  Intensité de fluorescence émise: 25
Temps d'incubation 60 min
  Intensité de fluorescence émise: 31
Temps d'incubation 120 min
  Intensité de fluorescence émise: 42
